Tests used:
Homo sapiens [1] = organism: Homo sapiens; assay: Potency index, ratio of acarbose IC50 to test compound IC50 for inhibition of alpha-amylase (unknown origin) using starch as substrate preincubated for 10 mins followed by substrate addition and measured after 10 mins; conditions: time 20.0 min
Homo sapiens [2] = organism: Homo sapiens; assay: Inhibition of alpha-glucosidase (unknown origin) using p-NPG as substrate preincubated for 5 mins followed by substrate addition and measured after 30 mins relative to control; set-up: concentration or dose not given beside the values; conditions: time 35.0 min
[3] = Inhibition of alpha-amylase (unknown origin) using starch as substrate preincubated for 10 mins followed by substrate addition and measured after 10 mins; set-up: species or system Homo sapiens
Homo sapiens [4] = organism: Homo sapiens; assay: Inhibition of alpha-amylase (unknown origin) using starch as substrate preincubated for 10 mins followed by substrate addition and measured after 10 mins relative to control; set-up: concentration or dose not given beside the values; conditions: time 20.0 min
[5] = Inhibition of alpha-amylase (unknown origin) using starch as substrate measured after 30 mins; set-up: species or system Homo sapiens
[6] = Inhibition of alpha-amylase (unknown origin); set-up: species or system Homo sapiens
[7] = Inhibition of porcine pancreatic alpha-amylase using starch as substrate preincubated for 10 mins followed by substrate addition and measured after 30 mins; set-up: species or system Sus scrofa

| SMILES | inhibition (Homo sapiens [2]) | inhibition (Homo sapiens [4]) | other results |
| --- | --- | --- | --- |
| O=C(CN1C(=O)/C(=C/c2nccs2)SC1=S)Nc1c(F)cc(Br)cc1Cl | 5.14% | 47.1% | Ratio IC50 (Homo sapiens [1]): 21; IC50 [3]: 45.1 µM |
| COc1ccc(C2C(C#N)=C(NC(C)=O)Oc3oc4ccccc4c(=O)c32)cc1 (stereo not drawn) | – | – | IC50 [5]: 0.00204 µM |
| CC(C)CNC(=O)CN1C(=O)/C(=C/c2nc3ccccc3s2)SC1=S | 6.23% | 43.2% | – |
| O=C(CN1C(=O)/C(=C/c2nc3ccccc3s2)SC1=S)Nc1c(F)cc(F)cc1Br | 6.16% | 40.1% | – |
| O=C(CN1C(=O)/C(=C/c2nccs2)SC1=S)Nc1c(F)cc(F)cc1Br | 4.85% | 42.8% | – |
| O=C(CN1C(=O)/C(=C/c2nccs2)SC1=S)Nc1cccnn1 | 10.1% | 10.1% | – |
| Cn1ccnc1/C=C1\SC(=S)N(CC(=O)Nc2ccc(Br)cc2F)C1=O | 8.36% | 10.2% | – |
| O=C(CN1C(=O)/C(=C/c2csc3ccccc23)SC1=S)Nc1c(F)cc(F)cc1Br | 6.49% | 60.4% | IC50 [3]: 190 µM |
| O=C(Cc1c[nH]c2ccccc12)NNS(=O)(=O)c1ccccc1F | – | – | IC50 [6]: 1.8 µM |
| O=C(CN1C(=O)/C(=C/c2nc3ccccc3s2)SC1=S)NC12CC3CC(CC(C3)C1)C2 | 6.63% | 29.6% | – |
| O=C(CN1C(=O)/C(=C/c2csc3ccccc23)SC1=S)Nc1cccnn1 | 7.87% | 37.8% | – |
| O=C(CN1C(=O)/C(=C/c2csc3ccccc23)SC1=S)Nc1c(F)cc(Br)cc1Cl | 10.2% | 68.2% | IC50 [3]: 154 µM |
| O=C(CN1C(=O)/C(=C/c2nc3ccccc3s2)SC1=S)Nc1cccnn1 | 7.42% | 37.4% | – |
| O=C(CN1C(=O)/C(=C/c2csc3ccccc23)SC1=S)Nc1ccc(C(F)(F)F)cc1 | 4.59% | 73.5% | Ratio IC50 (Homo sapiens [1]): 68; IC50 [3]: 14 µM |
| CC(=O)N1C(=O)C(Cc2cn(-c3ccc([N+](=O)[O-])cc3[N+](=O)[O-])nc2-c2ccc(O)cc2)SC1=S (stereo not drawn) | – | – | IC50 [7]: 638 µM |
| COc1ccc(C(=O)NC(=O)NC2CC2)cc1 | – | – | IC50 [6]: 1.57 µM |
| CC(C)CNC(=O)CN1C(=O)/C(=C/c2nccs2)SC1=S | 6.43% | 30.4% | – |
| O=C(CN1C(=O)/C(=C/c2nccs2)SC1=S)NC12CC3CC(CC(C3)C1)C2 | 5.67% | 42.1% | – |

Source: ChEMBL document CHEMBL6182895, “Synthesis, in vitro and in vivo evaluation, and computational modeling analysis of thioxothiazolidine derivatives as highly potent and selective α-amylase inhibitors” (Eur J Med Chem, 2025)
